From US10167276B2, “Compounds and methods for inhibiting JAK” (Dizal (Jiangsu) Pharmaceutical Co., Ltd., priority 2015, dated 2019)

System: STAT3 phosphorylation in NCI-H1975 cells
Experiment: Cellular pSTAT3 assay in NCI-H1975 cells
Format: cell-based
Settings: Homo sapiens, 2 hours with compound
Experimental: NCI-H1975 cells were plated onto Costar #3701 96 or 384 well tissue-culture treated plates at 5,000 cells/well in 30 uL medium (RPMI, 10% FBS, supplemented with L-glutamine) and incubated overnight at 37° C. in 5% CO2. Phospho STAT3 signal was quantitated utilizing Cell Signaling Technology #7146B Pathscan […] STAT3 antibody pair kit, following manufacturer's instructions.
Cells were dosed with compound and incubated at 37° C. in 5% CO2 for 2 hours, after which medium and compound were aspirated and cells lysed with 35 uL cold 1×Cell Signaling Lysis buffer and chilled at 4° C. for 1-2 hours. Lysate was incubated on STAT3 capture plates at 4° C. overnight, washed 3× with Tris-Buffered Saline with 0.05% Tween® 20 (TBST), then […] STAT3 detection antibody was applied for 2 hours. Following washing with TBST (3×), HRP-secondary antibody was applied for 2 hours. After additional washing, signal was detected using TMB and Stop solution and read at 450 nm using Tecan Infinite M100.

Structure (SMILES) | IC50 [µM]
COc1nn(C)cc1Nc1nccc(-c2c[nH]c3c(NC(=O)[C@@H](C)N4CCN(C)C[C@@H]4C)cccc23)n1 [Example 1, (2R)-2-[(2S)-2,4-dimethylpiperazin-1-yl]-N-(3-{2-[(3-methoxy-1-methyl-1H-pyrazol-4-yl)amino]pyrimidin-4-yl}-1H-indol-7-yl)propanamide] | 0.643
COc1nn(C)cc1Nc1ncc(F)c(-c2c[nH]c3c(NC(=O)[C@@H](C)N4CCN(C)[C@H](C)C4)cccc23)n1 [Example 2, (2R)-2-[(3R)-3,4-dimethylpiperazin-1-yl]-N-(3-{5-fluoro-2-[(3-methoxy-1-methyl-1H-pyrazol-4-yl)amino]pyrimidin-4-yl}-1H-indol-7-yl)propanamide] | 0.227
COCCN1CCN([C@H](C)C(=O)Nc2cccc3c(-c4nc(Nc5cn(C)nc5OC)ncc4F)c[nH]c23)CC1 [Example 3, (2R)-N-(3-{5-fluoro-[(3-methoxy-1-methyl-1H-pyrazol-4-yl)amino]pyrimidin-4-yl}-1H-indol-7-yl)-2-[4-(2-methoxyethyl)piperazin-1-yl]propanamide] | 0.302
CCN1CCN([C@H](C)C(=O)Nc2cccc3c(-c4nc(Nc5cn(C)nc5OC)ncc4F)c[nH]c23)CC1 [Example 4, (2R)-2-(4-ethylpiperazin-1-yl)-N-(3-{5-fluoro-2-[(3-methoxy-1-methyl-1H-pyrazol-4-yl)amino]pyrimidin-4-yl}-1H-indol-7-yl)propanamide] | 0.0986
COc1nn(C)cc1Nc1ncc(F)c(-c2c[nH]c3c(NC(=O)[C@@H](C)N4CCN(C)[C@@H](C)C4)cccc23)n1 [Example 5, (2R)-2-[(3S)-3,4-dimethylpiperazin-1-yl]-N-(3-{5-fluoro-2-[(3-methoxy-1-methyl-1H-pyrazol-4-yl)amino]pyrimidin-4-yl}-1H-indol-7-yl)propanamide] | 0.0872
COc1nn(C)cc1Nc1ncc(F)c(-c2c[nH]c3c(NC(=O)[C@@H](C)N4CCN(C)C[C@H]4C)cccc23)n1 [Example 6, (2R)-2-[(2R)-2,4-dimethylpiperazin-1-yl]-N-(3-{5-fluoro-2-[(3-methoxy-1-methyl-1H-pyrazol-4-yl)amino]pyrimidin-4-yl}-1H-indol-7-yl)propanamide] | 0.111
CCOc1nn(C)cc1Nc1ncc(F)c(-c2c[nH]c3c(NC(=O)[C@@H](C)N4CCN(CC)CC4)cccc23)n1 [Example 8, (2R)-N-(3-{2[(3-ethoxy-1-methyl-1H-pyrazol-4-yl)amino]-5-fluoropyrimidin-4-yl}-1H-indol-7-yl)-2-(4-ethylpiperazin-1-yl)propanamide] | 0.191
CCOc1nn(C)cc1Nc1ncc(F)c(-c2c[nH]c3c(NC(=O)[C@@H](C)N4CCN(CCOC)CC4)cccc23)n1 [Example 9, (2R)-N-(3-{2-[(3-ethoxy-1-methyl-1H-pyrazol-4-yl)amino]-5-fluoropyrimidin-4-yl}-1H-indol-7-yl)-2-[4-(2-methoxyethyl)piperazin-1-yl]propanamide] | 0.594

Other lines, results leading:

IC50 [µM] | Structure (SMILES)
0.509 | COc1nn(C)cc1Nc1ncc(F)c(-c2c[nH]c3c(NC(=O)[C@@H](C)N4CCN(C)C[C@@H]4C)cccc23)n1 [Example 7a, (2R)-2-[(3S)-2,4-dimethylpiperazin-1-yl]-N-(3-{5-fluoro-2-[(3-methoxy-1-methyl-1H-pyrazol-4-yl)amino]pyrimidin-4-yl}-1H-indol-7-yl)propanamide]
> 3 | COc1nn(C)cc1Nc1ncc(F)c(-c2c[nH]c3c(NC(=O)[C@H](C)N4CCN(C)C[C@@H]4C)cccc23)n1 [Example 7b, (2S)-2-[(3S)-2,4-dimethylpiperazin-1-yl]-N-(3-{5-fluoro-2-[(3-methoxy-1-methyl-1H-pyrazol-4-yl)amino]pyrimidin-4-yl}-1H-indol-7-yl)propanamide]
0.531 | CCOc1nn(C)cc1Nc1ncc(F)c(-c2c[nH]c3c(NC(=O)[C@@H](C)N4CCN(C)C[C@@H]4C)cccc23)n1 [Example 10a, (2R)-2-[(2S)-2,4-dimethylpiperazin-1-yl]-N-(3-{2-[(3-ethoxy-1-methyl-1H-pyrazol-4-yl)amino]-5-fluoropyrimidin-4-yl}-1H-indol-7-yl)propanamide]
